The source of these data is article PMC6580371 (ACS Medicinal Chemistry Letters, 2019).

Molecules are shown by their SMILES. Like-named read-outs stand apart in the source and are kept apart here. Some results are limits rather than exact numbers.

Data set [1] is classed as in vivo. Conditions: all species (rat, dog, monkey).
A short description of data set [2]: in vivo. To be noted: dog, po, 2 mg/kg.
Data set [3] in a line: in vivo. Conditions: monkey, iv.
Data set [4] is classed as in vitro ADME. To be noted: rat.
The format of data set [5] is in vitro ADME. Conditions: monkey.
The format of data set [6] is in vitro ADME. To be noted: human.

On to `O=C(N[C@H]1CCc2cc(F)cc(F)c2NC1=O)c1n[nH]c(Cc2ccccc2)n1` [Compound 6, (S)-5-benzyl-N-(7,9-difluoro-2-oxo-2,3,4,5-tetrahydro-1H-benzo[b]azepin-3-yl)-1H-1,2,4-triazole-3-carboxamide], for which the predicted human clearance result is “low clearance” and the predicted human volume entry is listed as “moderate volume”. Besides, the “clearance as % liver blood flow” value in data set [1] is given as no more than 35 % liver blood flow. For the same compound, in “in vivo [2]”, the concentration peaked (Cmax) at 910 ± 130 ng/mL. The compound further came in with a clearance in the data set “in vivo [3]” of 6.4 ± 0.5 mL/min/kg. In addition, the turnover in hepatocytes result in data set [4] is recorded as “moderate turnover”. Further, the turnover in hepatocytes result in data set [5] is recorded as “low turnover”. Moreover, the turnover in hepatocytes entry in data set [6] was “low turnover”. Moreover, the “predicted human AUC” value (40 mg twice daily) was 1700 ng·h/mL. Moreover, under “273 mg daily”, the “predicted human AUC” value was 11700 ng·h/mL. Further, the “predicted human terminal half-life” value (human) is reported as roughly 3.3 h.

The term Cmax denotes the highest concentration seen after dosing. Broadly, the clearance is a measure of how efficiently the substance is removed, as volume per time.
